From US8473035B2, “Medical imaging systems” (Beth Israel Deaconess Medical Center, priority 2003, dated 2013)

Tests used:
[1] = solubility of the dye in blood
[2] = in vivo early half-life of the dye; details: small molecule form
Description: This permits multiple injections during a single procedure.

blood flow in the heart = experiment: imaging of blood flow in the heart of a living laboratory rat after a thoracotomy; type: in vivo
Description: (§1) More generally, IR-786 may be used for non-radioactive imaging of areas of ischemia in the living heart, or other visualization of the viability of other tissues.

[3] = system: mitochondria and/or endoplasmic reticulum; experiment: partitioning of the dye into subcellular organelles; type: cell-based
Description: as §1

| Compound | solubility in blood [1] | in vivo early half-life [2] | imaging of blood flow in the heart (blood flow in the heart) | partitioning into mitochondria and/or endoplasmic reticulum [3] |
| --- | --- | --- | --- | --- |
| CC1(C)C(/C=C/C=C/C=C/C=C2\N(CCCCS(=O)(=O)O)c3ccc4ccccc4c3C2(C)C)=[N+](CCCCS(=O)(=O)[O-])c2ccc3ccccc3c21 [Indocyanine green, indocyanine green] | somewhat less soluble in blood | shorter half-life | – | – |
| CN1C(=CC=C2CCCC(C=CC3=[N+](C)c4ccccc4C3(C)C)=C2Cl)C(C)(C)c2ccccc21.[O-][Cl+3]([O-])([O-])[O-] [IR-786] | – | – | successfully applied | partitions efficiently into mitochondria and/or endoplasmic reticulum in a concentration-dependent manner |
